Values after ≈ are worked out from the molar mass of the structure shown.
Key:
Experiment in all cases: MIC on standard strains, standard method of Japan Society of Chemotherapy
Assay type in all cases: cell-based
E. coli CSH2(RK1) = conditions: Escherichia coli
Description: (§1) Antimicrobial activity of the compounds of the present invention were measured using CTM (cefotiam) and FMOX (flomoxef) as control drugs in accordance with the standard method of Japan Society of Chemotherapy. Of the 25 standard strains used in this test, Staphylococcus aureus 167 and Staphylococcus aureus 195 belong to MRSA.
(§2) In these tables, drugs tested are shown by the corresponding examples in which they were synthesized.

S. marcescens No. 16-2 = conditions: Serratia marcescens, NO.162
Description: as §1, §2

S. aureus Smith = conditions: Staphylococcus aureus, read-out: MIC
Description: as §1, §2

M. luteus ATCC 9341 = conditions: Micrococcus luteus, ATCC9341
Description: as §1, §2

S. marcescens IAM 1184 = conditions: Serratia marcescens, IAM1184, S. marcescens IAM 1184; read-out: MIC
Description: as §1, §2

K. pneuminiae No. 42 = test system: K. pneuminiae No. 42
Description: as §1, §2

S. epidemidis IAM 1296 = test system: S. epidemidis IAM 1296
Description: as §1, §2

P. aeruginosa NCTC 10490 = conditions: Pseudomonas aeruginosa, NCTC10490, P. aeruginosa NCTC 10490; read-out: MIC
Description: as §1, §2

P. mirabilis IFO 3849 = conditions: Proteus mirabilis, IFO3849, P. mirabilis IFO 3849; read-out: MIC
Description: as §1, §2

S. aureus 195 = conditions: Staphylococcus aureus; S. aureus 195 (MRSA)
Description: as §1, §2

E. coli CSH2(RE45) = conditions: Escherichia coli
Description: as §1, §2

E. coli NHIJ JC-2 = conditions: Escherichia coli, NHIJJC2
Description: as §1, §2

C. freundii ATCC 8090 = conditions: Citrobacter freundii, ATCC8090, C. freundii ATCC 8090; read-out: MIC
Description: as §1, §2

A. calcoaceticos T59 = conditions: read-out: MIC
Description: as §1, §2

P. cepacia = conditions: Burkholderia cepacia, read-out: MIC
Description: as §1, §2

K. pneuminiae IFO 3317 = test system: K. pneuminiae IFO 3317
Description: as §1, §2

P. vulugaris OX-19 = test system: P. vulugaris OX-19
Description: as §1, §2

A. faecalis ATCC 3750 = conditions: Alcaligenes faecalis, ATCC3750, A. faecalis ATCC 3750; read-out: MIC
Description: as §1, §2

E. cloacae Nek39 = conditions: Enterobacter cloacae, NEK39, E. cloacae Nek39; read-out: MIC
Description: as §1, §2

M. morganii IFO 3848 = conditions: Morganella morganii, IFO3848
Description: as §1, §2

S. aureus 209p JC-1 = conditions: Staphylococcus aureus, 209P, read-out: MIC
Description: as §1, §2

B. subtilis ATCC 6633 = conditions: Bacillus subtilis, ATCC6633, B. subtilis ATCC 6633; read-out: MIC
Description: as §1, §2

S. aureus 167 = conditions: Staphylococcus aureus; S. aureus 167 (MRSA)
Description: as §1, §2

E. cloacae ATCC 13407 = conditions: Enterobacter cloacae, ATCC13407, E. cloacae ATCC 13407; read-out: MIC
Description: as §1, §2

P. aeruginosa AKR17 = conditions: Pseudomonas aeruginosa
Description: as §1, §2

| SMILES | MIC (E. coli CSH2(RK1)) | MIC (S. marcescens No. 16-2) | MIC (S. aureus Smith) | MIC (M. luteus ATCC 9341) | MIC (S. marcescens IAM 1184) | MIC (K. pneuminiae No. 42) | MIC (S. epidemidis IAM 1296) | MIC (P. aeruginosa NCTC 10490) | MIC (P. mirabilis IFO 3849) | MIC (S. aureus 195) | MIC (E. coli CSH2(RE45)) | MIC (E. coli NHIJ JC-2) | MIC (C. freundii ATCC 8090) | MIC (A. calcoaceticos T59) | MIC (P. cepacia) | MIC (K. pneuminiae IFO 3317) | MIC (P. vulugaris OX-19) | MIC (A. faecalis ATCC 3750) | MIC (E. cloacae Nek39) | MIC (M. morganii IFO 3848) | other results |
| --- | --- | --- | --- | --- | --- | --- | --- | --- | --- | --- | --- | --- | --- | --- | --- | --- | --- | --- | --- | --- | --- |
| Nc1nc(/C(=N/O)C(=O)N[C@@H]2C(=O)N3C(C(=O)[O-])=C(C[n+]4ccc(-c5ncno5)cc4)CS[C@H]23)ns1 [Ex. 6, 7β-[2-(5-amino-1,2,4-thiadiazol-3-yl)-2-syn-hydroxyiminoacetamido]-3-[4-(1,2,4-oxadiazol-5-yl)pyridinio]methyl-3-cephem-4-carboxylate] | 1.56 µg/mL (≈ 2.95 µM) | > 100 µg/mL | 1.56 µg/mL (≈ 2.95 µM) | 0.1 µg/mL (≈ 0.189 µM) | 0.78 µg/mL (≈ 1.47 µM) | 1.56 µg/mL (≈ 2.95 µM) | 0.39 µg/mL (≈ 0.737 µM) | 0.78 µg/mL (≈ 1.47 µM) | 0.78 µg/mL (≈ 1.47 µM) | 6.25 µg/mL (≈ 11.8 µM) | 0.78 µg/mL (≈ 1.47 µM) | 0.78 µg/mL (≈ 1.47 µM) | 0.78 µg/mL (≈ 1.47 µM) | 6.25 µg/mL (≈ 11.8 µM) | > 100 µg/mL | 0.39 µg/mL (≈ 0.737 µM) | 1.56 µg/mL (≈ 2.95 µM) | 3.13 µg/mL (≈ 5.91 µM) | 50 µg/mL (≈ 94.4 µM) | 0.39 µg/mL (≈ 0.737 µM) | MIC (S. aureus 209p JC-1): 0.78 µg/mL (≈ 1.47 µM); MIC (B. subtilis ATCC 6633): 0.39 µg/mL (≈ 0.737 µM); MIC (S. aureus 167): 12.5 µg/mL (≈ 23.6 µM); MIC (E. cloacae ATCC 13407): 6.25 µg/mL (≈ 11.8 µM); MIC (P. aeruginosa AKR17): > 100 µg/mL |
| NC(=O)Cc1ccc[n+](CC2=C(C(=O)[O-])N3C(=O)[C@@H](NC(=O)/C(=N\O)c4nsc(N)n4)[C@H]3SC2)c1 [Ex. 1, 7β-[2-(5-amino-1,2,4-thiadiazol-3-yl)-2-syn-hydroxyiminoacetamido]-3-(3-carbamoylmethylpyridinio)methyl-3-cephem-4-carboxylate] | 3.13 µg/mL (≈ 6.04 µM) | > 100 µg/mL | 1.56 µg/mL (≈ 3.01 µM) | 0.2 µg/mL (≈ 0.386 µM) | 0.78 µg/mL (≈ 1.5 µM) | 1.56 µg/mL (≈ 3.01 µM) | 0.39 µg/mL (≈ 0.752 µM) | 0.78 µg/mL (≈ 1.5 µM) | 1.56 µg/mL (≈ 3.01 µM) | 12.5 µg/mL (≈ 24.1 µM) | 3.13 µg/mL (≈ 6.04 µM) | 1.56 µg/mL (≈ 3.01 µM) | 1.56 µg/mL (≈ 3.01 µM) | 3.13 µg/mL (≈ 6.04 µM) | > 100 µg/mL | 0.78 µg/mL (≈ 1.5 µM) | 3.13 µg/mL (≈ 6.04 µM) | 6.25 µg/mL (≈ 12.1 µM) | 100 µg/mL (≈ 193 µM) | 1.56 µg/mL (≈ 3.01 µM) | MIC (S. aureus 209p JC-1): 0.78 µg/mL (≈ 1.5 µM); MIC (B. subtilis ATCC 6633): 0.39 µg/mL (≈ 0.752 µM); MIC (S. aureus 167): 12.5 µg/mL (≈ 24.1 µM); MIC (E. cloacae ATCC 13407): 3.13 µg/mL (≈ 6.04 µM); MIC (P. aeruginosa AKR17): > 100 µg/mL |
| Nc1nc(/C(=N/O)C(=O)N[C@@H]2C(=O)N3C(C(=O)[O-])=C(C[n+]4ccc(-c5ncno5)cc4)CS[C@H]23)cs1 [Ex. 8, 7β-[2-(2-aminothiazol-4-yl)-2-syn-hydroxyiminoacetamido]-3-[4-(1,2,4-oxadiazol-5-yl)pyridinio]methyl-3-cephem-4-carboxylate] | 1.56 µg/mL (≈ 2.95 µM) | 100 µg/mL (≈ 189 µM) | 0.39 µg/mL (≈ 0.738 µM) | 0.05 µg/mL (≈ 0.0946 µM) | 0.39 µg/mL (≈ 0.738 µM) | 0.78 µg/mL (≈ 1.48 µM) | 0.1 µg/mL (≈ 0.189 µM) | 1.56 µg/mL (≈ 2.95 µM) | 0.2 µg/mL (≈ 0.378 µM) | 3.13 µg/mL (≈ 5.92 µM) | 0.39 µg/mL (≈ 0.738 µM) | 0.39 µg/mL (≈ 0.738 µM) | 0.2 µg/mL (≈ 0.378 µM) | 12.5 µg/mL (≈ 23.7 µM) | > 100 µg/mL | 0.2 µg/mL (≈ 0.378 µM) | 0.2 µg/mL (≈ 0.378 µM) | 0.78 µg/mL (≈ 1.48 µM) | 50 µg/mL (≈ 94.6 µM) | 0.05 µg/mL (≈ 0.0946 µM) | MIC (S. aureus 209p JC-1): 0.39 µg/mL (≈ 0.738 µM); MIC (B. subtilis ATCC 6633): 0.78 µg/mL (≈ 1.48 µM); MIC (S. aureus 167): 12.5 µg/mL (≈ 23.7 µM); MIC (E. cloacae ATCC 13407): 3.13 µg/mL (≈ 5.92 µM); MIC (P. aeruginosa AKR17): > 100 µg/mL |
